# Assay results reported in US8318186B2, “Use of at least a fatty ester for preparing a composition designed to inhibit 5-α-reductase activity, in pharmacology, in particular dermatology, in cosmetics and as food additive” (Laboratoires Expanscience, priority 2000, dated 2012).
# Several values for one entry are separate records, joined by “and”; a condition that tells them apart may be missing. Equal entries are not always repeated. Marks after values point to notes of the source that are not given here.
# What was measured:
# 5α-reductase = assay: Fatty acid esters on 5α-reductase activity, conversion of testosterone to 5α-dihydrotestosterone in normal human dermal fibroblast cultures (Example 4); type: cell-based; parameters: key to group by 5α-reductase inhibitory activity: group A with the highest inhibitory activity; group B with an intermediate inhibitory activity; conditions: for inhibition of the 5α-reductase activity: Example 4, p<0.05; for 5α-DHT formed per culture well, mean / 5α-DHT formed per culture well, single well: after 24 of incubation, DMSO 0.1% (v/v); for 5α-DHT formed per culture well, single well: single replicate; for group by 5α-reductase inhibitory activity: tested at 1, 10 and 100 μg/ml
# Protocol: The fibroblast culture medium (FCM) consisted of MEM/M199 (3:1, v/v) supplemented with penicillin (50 IU/ml), streptomycin (50 μg/ml), sodium bicarbonate (0.2%, w/v) and FCS (10%, v/v).
# The assay system consisted of normal human dermal fibroblasts cultured as a monolayer. The fibroblasts were isolated from a residue from abdominal plastic surgery performed on a person (subject BIOPREDIC No. I0013). The cells were used at the fifth passage; they were cultured until the monolayers were confluent in FCM medium at 37° C. in a humid atmosphere containing 5% CO2.
# The fibroblast incubation medium (FIM) consisted of FCM supplemented with tritiated testosterone (1.6×10^−7 M, that is 6.32 μCi/ml) and nonradiolabeled testosterone (3.84×10^−6 M)
# The test products and finasteride were taken up in DMSO before being diluted in the incubation medium. […]
# The fibroblast cultures were preincubated in the presence of the test products or of the reference product for 2 hours before adding the substrate, testosterone. For this step, the test products and the reference product were prepared in the FCM medium.
# After preincubation, the fibroblast cultures were incubated in the presence of the test products or of the reference product prepared in the FIM medium for 22 hours at 37° C. in a humid atmosphere containing 5% CO2. Control cultures were incubated in the FIM medium in the absence of test products and of reference product. […]
# Each experimental condition was tested in triplicate.
# After the incubation period, the cells were subjected to the action of ultrasound in the FIM medium. The cellular lysates thus obtained were extracted with dichloromethane. After evaporation, the dry residues were taken up in methanol and were deposited on 60F254 silica plates (MERCK, reference 5554).
# The migration solvent was a mixture of dichloromethane and ether (7:3, v/v) At the end of the migration, the silica plates were read using a BERTHOLD radioactivity scanner.
# The metabolizing of testosterone to 5α-dihydro-testosterone under the various experimental conditions was calculated: the results (areas of the 5α-dihydrotestosterone peaks counted by the BERTHOLD scanner) were expressed in pmol of 5α-dihydro-testosterone formed per culture well. They were also expressed as a percentage of the 5α-reductase activity present in the “DMSO control” group.
# The groups of data (control group and treated groups) were treated by a one-way analysis of variance (ANOVA 1, p<0.05), followed by a DUNNETT's test (p<0.05). The effect of the test products and of the reference product was compared with the “DMSO control” group. The effects of the test products were compared to each other by a two-way analysis of variance (ANOVA 2, p<0.05, factor 1=concentration and factor 2=treatment).
# The same materials and methods are used as in example 3 above.
# It was proposed to evaluate the effect of fatty acid esters on the 5α-reductase activity. An in vitro model of normal human dermal fibroblast cultures was selected. The products tested were chosen from the group of fatty acid esters varying in the length and the functionality of the fatty chain, and the nature of the alkoxy group. These esters are the following: methyl oleate, methyl linoleate, methyl stearate, methyl laurate, methyl undecylenate, butyl oleate, oleyl oleate and methyl ricinoleate.
# [1] = tested on: normal human dermal fibroblasts; assay: Morphological examination of the fibroblasts (Example 4); type: cell-based; conditions: at 10 and 100 μg/ml
SMILES,5α-reductase activity as percentage of the “DMSO 0.1% (v/v)” group (5α-reductase; 1 μg/ml),inhibition of the 5α-reductase activity (5α-reductase; 1 μg/ml) [%],"5α-DHT formed per culture well, mean (5α-reductase; 1 μg/ml)","5α-DHT formed per culture well, single well (5α-reductase; 1 μg/ml)",5α-reductase activity as percentage of the “DMSO 0.1% (v/v)” group (5α-reductase; 10 μg/ml),inhibition of the 5α-reductase activity (5α-reductase; 10 μg/ml) [%],"5α-DHT formed per culture well, mean (5α-reductase; 10 μg/ml)","5α-DHT formed per culture well, single well (5α-reductase; 10 μg/ml)",5α-reductase activity as percentage of the “DMSO 0.1% (v/v)” group (5α-reductase; 100 μg/ml),inhibition of the 5α-reductase activity (5α-reductase; 100 μg/ml) [%],"5α-DHT formed per culture well, mean (5α-reductase; 100 μg/ml)","5α-DHT formed per culture well, single well (5α-reductase; 100 μg/ml)",group by 5α-reductase inhibitory activity (5α-reductase),state of the fibroblasts by morphological examination of the cells [1]
"C=CCCCCCCCCC(=O)OC [Methyl undecylenate, methyl undecylenate]",60 percentage of the “DMSO 0.1% (v/v)” group,40,6.89* +/− pmol of 5α-DHT formed/culture well,6.56 pmol of 5α-DHT formed/culture well and 7.44 pmol of 5α-DHT formed/culture well and 6.68 pmol of 5α-DHT formed/culture well,68 percentage of the “DMSO 0.1% (v/v)” group,32,7.71* +/− pmol of 5α-DHT formed/culture well,7.68 pmol of 5α-DHT formed/culture well and 7.84 pmol of 5α-DHT formed/culture well and 7.60 pmol of 5α-DHT formed/culture well,74 percentage of the “DMSO 0.1% (v/v)” group,26,8.48* +/− pmol of 5α-DHT formed/culture well,8.68 pmol of 5α-DHT formed/culture well and 7.76 pmol of 5α-DHT formed/culture well and 9.00 pmol of 5α-DHT formed/culture well,B,
"CCCCCCCC/C=C\CCCCCCCCOC(=O)CCCCCCC/C=C\CCCCCCCC [Oleyl oleate, oleyl oleate]",72 percentage of the “DMSO 0.1% (v/v)” group,28,8.17* +/− pmol of 5α-DHT formed/culture well,9.00 pmol of 5α-DHT formed/culture well and 7.32 pmol of 5α-DHT formed/culture well and 8.20 pmol of 5α-DHT formed/culture well,55 percentage of the “DMSO 0.1% (v/v)” group,45,6.25* +/− pmol of 5α-DHT formed/culture well,6.12 pmol of 5α-DHT formed/culture well and 6.44 pmol of 5α-DHT formed/culture well and 6.20 pmol of 5α-DHT formed/culture well,65 percentage of the “DMSO 0.1% (v/v)” group,35,7.45* +/− pmol of 5α-DHT formed/culture well,6.28 pmol of 5α-DHT formed/culture well and 8.60 pmol of 5α-DHT formed/culture well and 7.48 pmol of 5α-DHT formed/culture well,A,cellular suffering
